Results reported in publication PMC7782793, “Hydroxamic acid-modified peptide microarrays for profiling isozyme-selective interactions and inhibition of histone deacetylases” (Nature Communications, 2021).
“And” between values parts separate entries of the source, which are not always exact repeats. Equal entries are not always repeated. Marks after values point to notes of the source that are not given here. Non-standard residues stand in square brackets, D forms with d. Residues, ends and D or L forms follow the SMILES beside them. *: point of attachment. Asu = N[C@@H](CCCCCC(=O)O)C(=O)O; NHOH = ON*

Assays:
Type in all cases: biochemical
HDAC6 = molecular target: T1, HDAC6 (Homo sapiens, UniProt Q9UBN7); test: HDAC inhibition assay (fluorogenic, Ac-Leu-Gly-Lys(Ac)-AMC); details: HDAC6, replicates
T1 construct: HDAC6 (full length, BPS Bioscience, cat. #: 50056); purchased BPS Bioscience 50056
T1 sequence (Q9UBN7 1-1215): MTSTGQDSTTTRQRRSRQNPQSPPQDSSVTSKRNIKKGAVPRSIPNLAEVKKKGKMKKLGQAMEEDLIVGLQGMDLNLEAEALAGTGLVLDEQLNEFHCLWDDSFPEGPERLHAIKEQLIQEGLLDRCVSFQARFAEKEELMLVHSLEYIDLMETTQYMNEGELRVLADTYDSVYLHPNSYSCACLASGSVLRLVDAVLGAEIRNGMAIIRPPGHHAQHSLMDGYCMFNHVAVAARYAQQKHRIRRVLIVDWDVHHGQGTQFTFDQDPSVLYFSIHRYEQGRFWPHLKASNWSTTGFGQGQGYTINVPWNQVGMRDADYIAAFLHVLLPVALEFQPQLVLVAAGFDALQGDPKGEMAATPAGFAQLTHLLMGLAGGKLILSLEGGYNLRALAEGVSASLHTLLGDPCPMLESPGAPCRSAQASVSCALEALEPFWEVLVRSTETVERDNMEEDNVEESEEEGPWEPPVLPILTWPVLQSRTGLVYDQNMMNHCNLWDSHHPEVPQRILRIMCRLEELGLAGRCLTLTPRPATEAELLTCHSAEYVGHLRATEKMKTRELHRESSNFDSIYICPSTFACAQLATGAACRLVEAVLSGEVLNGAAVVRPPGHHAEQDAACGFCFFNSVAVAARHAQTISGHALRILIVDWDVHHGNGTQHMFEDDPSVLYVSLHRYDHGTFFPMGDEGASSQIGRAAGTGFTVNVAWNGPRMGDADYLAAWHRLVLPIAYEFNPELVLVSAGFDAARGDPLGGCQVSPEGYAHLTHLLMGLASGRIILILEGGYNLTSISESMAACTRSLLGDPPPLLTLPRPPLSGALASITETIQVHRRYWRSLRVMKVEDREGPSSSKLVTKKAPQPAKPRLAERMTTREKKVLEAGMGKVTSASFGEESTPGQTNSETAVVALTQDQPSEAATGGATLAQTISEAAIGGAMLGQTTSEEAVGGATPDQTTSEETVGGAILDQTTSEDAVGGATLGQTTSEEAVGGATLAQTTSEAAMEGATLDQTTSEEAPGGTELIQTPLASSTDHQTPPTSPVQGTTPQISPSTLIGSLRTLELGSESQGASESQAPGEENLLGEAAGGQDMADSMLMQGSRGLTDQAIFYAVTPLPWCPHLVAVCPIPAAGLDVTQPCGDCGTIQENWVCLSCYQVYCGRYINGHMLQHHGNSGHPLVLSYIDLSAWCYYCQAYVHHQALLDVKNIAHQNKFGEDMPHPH

HDAC2 = molecular target: T2, HDAC2 (Homo sapiens, UniProt Q92769); test: as above; details: HDAC2, replicates
T2 construct: HDAC2 (full length, C-terminal His tag, BPS Bioscience, cat. #: 50002); purchased BPS Bioscience 50002

HDAC8 = molecular target: T3, HDAC8 (Homo sapiens, UniProt Q9BY41); test: HDAC inhibition assay (fluorogenic, Ac-Leu-Gly-Lys(Tfa)-AMC); details: HDAC8, replicates
T3 construct: HDAC8 (full length, C-terminal His tag, BPS Bioscience, cat. #: 50008); purchased BPS Bioscience 50008
T3 sequence (Q9BY41 1-377): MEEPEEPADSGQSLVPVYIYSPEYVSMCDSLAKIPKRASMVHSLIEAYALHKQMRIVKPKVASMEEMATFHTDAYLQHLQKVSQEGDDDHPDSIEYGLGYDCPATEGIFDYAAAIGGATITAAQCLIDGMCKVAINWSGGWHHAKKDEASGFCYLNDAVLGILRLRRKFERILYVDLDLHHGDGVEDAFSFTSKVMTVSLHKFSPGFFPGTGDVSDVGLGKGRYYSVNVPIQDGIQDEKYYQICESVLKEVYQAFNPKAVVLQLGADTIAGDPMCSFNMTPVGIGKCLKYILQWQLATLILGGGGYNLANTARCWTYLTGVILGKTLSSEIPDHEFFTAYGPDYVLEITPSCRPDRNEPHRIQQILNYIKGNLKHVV

HDAC1 = molecular target: T4, HDAC1 (Homo sapiens, UniProt Q13547); test: HDAC inhibition assay (fluorogenic, Ac-Leu-Gly-Lys(Ac)-AMC); details: HDAC1, replicates
T4 construct: HDAC1 (full length, C-terminal His tag, C-terminal FLAG tag, BPS Bioscience, cat. #: 50051); FLAG (C); purchased BPS Bioscience 50051

HDAC3/NCoR2 = molecular target: T5, HDAC3/NCoR2 (Homo sapiens, UniProt O15379); test: as above; details: HDAC3, replicates
T5 construct: HDAC3/NCoR2 (full length, C-terminal His tag, NCoR2 N-terminal GST tag); purchased BPS Bioscience 50003

[1] = log[inhibitor(M)] -10,5850266520292*

T4 sequence (Q13547 whole entry): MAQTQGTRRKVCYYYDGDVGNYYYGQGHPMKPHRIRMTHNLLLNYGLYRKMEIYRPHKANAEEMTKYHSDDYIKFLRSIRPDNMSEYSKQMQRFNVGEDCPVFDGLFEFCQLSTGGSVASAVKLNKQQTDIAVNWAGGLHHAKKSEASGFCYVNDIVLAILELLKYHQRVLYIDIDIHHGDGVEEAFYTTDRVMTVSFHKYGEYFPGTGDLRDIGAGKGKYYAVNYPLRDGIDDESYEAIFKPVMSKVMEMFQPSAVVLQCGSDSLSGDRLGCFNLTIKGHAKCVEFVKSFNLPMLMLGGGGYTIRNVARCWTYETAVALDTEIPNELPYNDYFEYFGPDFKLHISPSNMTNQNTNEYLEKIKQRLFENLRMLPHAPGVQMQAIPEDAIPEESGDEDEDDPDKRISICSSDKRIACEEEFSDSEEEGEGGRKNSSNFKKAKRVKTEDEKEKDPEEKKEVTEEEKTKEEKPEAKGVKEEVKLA
T5 sequence (O15379 whole entry): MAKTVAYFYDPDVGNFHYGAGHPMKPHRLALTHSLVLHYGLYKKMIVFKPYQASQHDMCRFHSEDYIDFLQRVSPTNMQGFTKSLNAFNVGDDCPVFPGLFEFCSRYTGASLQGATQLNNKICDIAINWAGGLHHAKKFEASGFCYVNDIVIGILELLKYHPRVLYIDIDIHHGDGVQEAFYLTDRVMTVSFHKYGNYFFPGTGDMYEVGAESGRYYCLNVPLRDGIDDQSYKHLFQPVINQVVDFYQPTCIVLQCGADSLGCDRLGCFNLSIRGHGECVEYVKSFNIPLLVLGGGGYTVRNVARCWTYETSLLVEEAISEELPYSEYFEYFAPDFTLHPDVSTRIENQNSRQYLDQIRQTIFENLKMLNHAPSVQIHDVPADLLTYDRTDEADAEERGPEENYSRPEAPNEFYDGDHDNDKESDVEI
T5 sequence (Q9Y618 389-480 partner limits assumed): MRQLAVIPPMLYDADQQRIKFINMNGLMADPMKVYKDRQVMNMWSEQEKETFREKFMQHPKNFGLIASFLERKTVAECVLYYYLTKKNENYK
T2 sequence (Q92769 whole entry): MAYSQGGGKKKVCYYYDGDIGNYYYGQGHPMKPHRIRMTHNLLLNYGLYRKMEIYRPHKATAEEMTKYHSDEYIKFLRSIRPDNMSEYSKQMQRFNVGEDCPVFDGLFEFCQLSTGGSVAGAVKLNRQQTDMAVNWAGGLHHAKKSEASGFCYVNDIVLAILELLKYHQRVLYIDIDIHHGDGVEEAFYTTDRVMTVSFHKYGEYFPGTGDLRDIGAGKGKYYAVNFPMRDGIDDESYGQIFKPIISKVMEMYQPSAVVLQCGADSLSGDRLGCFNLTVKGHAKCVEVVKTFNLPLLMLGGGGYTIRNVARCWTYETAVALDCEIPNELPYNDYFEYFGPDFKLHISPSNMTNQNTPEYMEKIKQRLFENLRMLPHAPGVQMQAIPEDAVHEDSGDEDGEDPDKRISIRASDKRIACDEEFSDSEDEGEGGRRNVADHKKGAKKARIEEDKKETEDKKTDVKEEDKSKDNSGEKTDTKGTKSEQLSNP

SMILES: CC(=O)N[C@@H](CCCCN)C(=O)NCC(=O)NCC(=O)N[C@@H](CCCCN)C(=O)NCC(=O)N[C@@H](CC(C)C)C(=O)NCC(=O)N[C@@H](CCCCCC(=O)NO)C(=O)NCC(=O)NCC(=O)N[C@@H](C)C(=O)N[C@@H](CCCCN)C(=O)N[C@@H](CCCNC(=N)N)C(=O)N[C@@H](Cc1c[nH]cn1)C(=O)N[C@@H](CCCNC(=N)N)C(=O)N[C@@H](Cc1c[nH]c2ccccc12)C(N)=O [1a] (Ac-KGGKGLG[Asu](NHOH)GGAKRHRW-NH2)
- residual enzymatic activity relative to control wells (HDAC6; log[inhibitor(M)] -4.30103): 2.005 and 0.9042
- residual enzymatic activity relative to control wells (HDAC6; log[inhibitor(M)] -5): 3.396 and 1.499
- residual enzymatic activity relative to control wells (HDAC6; log[inhibitor(M)] -5.69897): 3.721 and 2.924
- residual enzymatic activity relative to control wells (HDAC6; log[inhibitor(M)] -6.39794): 6.701 and 7.197
- residual enzymatic activity relative to control wells (HDAC6; log[inhibitor(M)] -7.09691): 17.8452 and 18.76
- residual enzymatic activity relative to control wells (HDAC6; log[inhibitor(M)] -7.79588): 40.4588 and 44.1884
- residual enzymatic activity relative to control wells (HDAC6; log[inhibitor(M)] -8.49485): 67.624 and 70.0247
- residual enzymatic activity relative to control wells (HDAC6; log[inhibitor(M)] -9.19382): 82.7418 and 78.8697
- residual enzymatic activity relative to control wells (HDAC6; log[inhibitor(M)] -9.89279): 94.6266 and 87.8667
- residual enzymatic activity relative to control wells (HDAC6; log[inhibitor(M)] -10.585): 92.0979 and 95.7297
- residual enzymatic activity relative to control wells (HDAC2; log[inhibitor(M)] -5): 2.133 and 2.791
- residual enzymatic activity relative to control wells (HDAC2; log[inhibitor(M)] -5.69897): 7.69 and 10.6271
- residual enzymatic activity relative to control wells (HDAC2; log[inhibitor(M)] -7.79588): 81.9038 and 87.9722
- residual enzymatic activity relative to control wells (HDAC2; [1]): 96,4513363* and 102,627848*
- residual enzymatic activity relative to control wells (HDAC8; log[inhibitor(M)] -4.30103): 0.7299 and 0.6853
- residual enzymatic activity relative to control wells (HDAC8; log[inhibitor(M)] -5): 2.535 and 2.3091
- residual enzymatic activity relative to control wells (HDAC8; log[inhibitor(M)] -5.69897): 8.883 and 8.651
- residual enzymatic activity relative to control wells (HDAC8; log[inhibitor(M)] -6.39794): 23.8025 and 24.0279
- residual enzymatic activity relative to control wells (HDAC8; log[inhibitor(M)] -7.09691): 53.2804 and 53.6221
- residual enzymatic activity relative to control wells (HDAC8; log[inhibitor(M)] -7.79588): 81.5639 and 82.7228
- residual enzymatic activity relative to control wells (HDAC8; log[inhibitor(M)] -8.49485): 92.8692 and 94.6574
- residual enzymatic activity relative to control wells (HDAC8; log[inhibitor(M)] -9.19382): 96.2557 and 98.5897
- residual enzymatic activity relative to control wells (HDAC8; log[inhibitor(M)] -9.89279): 97.4874 and 100.887
- residual enzymatic activity relative to control wells (HDAC8; [1]): 99,4860668* and 101,450216*
- residual enzymatic activity relative to control wells (HDAC1; log[inhibitor(M)] -4.30103): 0.3873 and 0.804
- residual enzymatic activity relative to control wells (HDAC1; log[inhibitor(M)] -5): 1.615 and 1.98
- residual enzymatic activity relative to control wells (HDAC1; log[inhibitor(M)] -5.69897): 4.97 and 7.056
- residual enzymatic activity relative to control wells (HDAC1; log[inhibitor(M)] -6.39794): 17.3755 and 23.9522
- residual enzymatic activity relative to control wells (HDAC1; log[inhibitor(M)] -7.09691): 42.4661 and 51.6182
- residual enzymatic activity relative to control wells (HDAC1; log[inhibitor(M)] -7.79588): 69.6554 and 78.2753
- residual enzymatic activity relative to control wells (HDAC1; log[inhibitor(M)] -8.49485): 90.2096 and 95.3244
- residual enzymatic activity relative to control wells (HDAC1; log[inhibitor(M)] -9.19382): 98.0899 and 101.545
- residual enzymatic activity relative to control wells (HDAC1; log[inhibitor(M)] -9.89279): 100.633 and 103.923
- residual enzymatic activity relative to control wells (HDAC1; [1]): 100,638665* and 104,135042*
- residual enzymatic activity relative to control wells (HDAC3/NCoR2; log[inhibitor(M)] -4.30103): 0,27707809* and 0,48240325*
- residual enzymatic activity relative to control wells (HDAC3/NCoR2; log[inhibitor(M)] -5): 1.078 and 1.224
- residual enzymatic activity relative to control wells (HDAC3/NCoR2; log[inhibitor(M)] -5.69897): 2.835 and 3.644
- residual enzymatic activity relative to control wells (HDAC3/NCoR2; log[inhibitor(M)] -6.39794): 8.976 and 10.8935
- residual enzymatic activity relative to control wells (HDAC3/NCoR2; log[inhibitor(M)] -7.09691): 20.3107 and 23.0019
- residual enzymatic activity relative to control wells (HDAC3/NCoR2; log[inhibitor(M)] -7.79588): 35.6703 and 40.8157
- residual enzymatic activity relative to control wells (HDAC3/NCoR2; log[inhibitor(M)] -8.49485): 61.9563 and 69.3477
- residual enzymatic activity relative to control wells (HDAC3/NCoR2; log[inhibitor(M)] -9.19382): 85.7851 and 89.42
- residual enzymatic activity relative to control wells (HDAC3/NCoR2; log[inhibitor(M)] -9.89279): 97.8645 and 95.529
- residual enzymatic activity relative to control wells (HDAC3/NCoR2; log[inhibitor(M)] -10.585): 99.8741 and 99.2523
